Test in all cases: pIC50, kinobeads binding competition
One assay concerns the target T1, TNK1 (UniProt Q13470).
T1 sequence (whole entry): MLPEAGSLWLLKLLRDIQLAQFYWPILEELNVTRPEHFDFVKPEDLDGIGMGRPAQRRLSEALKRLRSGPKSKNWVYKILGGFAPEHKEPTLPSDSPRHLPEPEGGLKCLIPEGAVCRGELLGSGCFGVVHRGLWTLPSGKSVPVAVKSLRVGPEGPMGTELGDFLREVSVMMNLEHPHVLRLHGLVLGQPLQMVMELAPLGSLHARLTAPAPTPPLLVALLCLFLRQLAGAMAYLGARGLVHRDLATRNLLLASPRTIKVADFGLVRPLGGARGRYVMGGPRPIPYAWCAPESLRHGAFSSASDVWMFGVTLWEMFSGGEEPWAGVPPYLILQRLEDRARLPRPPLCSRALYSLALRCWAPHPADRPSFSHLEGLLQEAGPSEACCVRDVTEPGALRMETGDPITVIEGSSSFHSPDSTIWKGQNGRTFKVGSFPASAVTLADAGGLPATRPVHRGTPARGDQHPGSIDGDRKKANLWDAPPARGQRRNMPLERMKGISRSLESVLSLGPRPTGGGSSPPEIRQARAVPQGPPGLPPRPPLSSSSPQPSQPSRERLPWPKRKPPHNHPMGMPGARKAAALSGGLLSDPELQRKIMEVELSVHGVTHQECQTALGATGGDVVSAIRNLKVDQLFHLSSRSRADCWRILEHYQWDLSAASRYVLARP
Particulars: cell material: Lysate mix. Summed up:
(§1)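 Either living Jurkat cells (60 min at 37 °C, then lysis) or lysates (60 min at 4 °C) were treated with nine compound concentrations from a top of 30 μM, in 1:4 steps for cells and 1:5 steps for lysates. The lysates were from Jurkat cells or a 1:1:1:1 mix of HEK293, K-562, HepG2 and placenta. Kinobeads-bound proteins were digested and quantified by TMT10 LC-MS/MS. pIC50 was calculated by logistic dose-response fitting (R drc package) of fold changes relative to vehicle, in biological duplicates.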

The target of a further assay is T2, UniProt P45985.
T2 sequence (whole entry): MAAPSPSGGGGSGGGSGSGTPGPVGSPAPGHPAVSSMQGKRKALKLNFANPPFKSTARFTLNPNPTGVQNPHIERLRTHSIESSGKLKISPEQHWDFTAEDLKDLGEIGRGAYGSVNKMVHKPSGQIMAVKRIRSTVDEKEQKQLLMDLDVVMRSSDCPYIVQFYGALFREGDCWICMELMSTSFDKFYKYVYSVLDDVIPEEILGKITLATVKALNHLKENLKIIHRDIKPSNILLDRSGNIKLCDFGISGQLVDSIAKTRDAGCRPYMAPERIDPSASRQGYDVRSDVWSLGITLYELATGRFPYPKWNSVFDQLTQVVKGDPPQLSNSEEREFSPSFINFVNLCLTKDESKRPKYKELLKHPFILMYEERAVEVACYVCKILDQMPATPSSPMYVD
Put shortly:
as §1

The next assay concerns the target UniProt Q15418. Put shortly:
as §1

Another assay deals with UniProt O75460. Summed up: as §1
Another assay addresses T3, ULK3 (UniProt Q6PHR2).
T3 sequence (whole entry): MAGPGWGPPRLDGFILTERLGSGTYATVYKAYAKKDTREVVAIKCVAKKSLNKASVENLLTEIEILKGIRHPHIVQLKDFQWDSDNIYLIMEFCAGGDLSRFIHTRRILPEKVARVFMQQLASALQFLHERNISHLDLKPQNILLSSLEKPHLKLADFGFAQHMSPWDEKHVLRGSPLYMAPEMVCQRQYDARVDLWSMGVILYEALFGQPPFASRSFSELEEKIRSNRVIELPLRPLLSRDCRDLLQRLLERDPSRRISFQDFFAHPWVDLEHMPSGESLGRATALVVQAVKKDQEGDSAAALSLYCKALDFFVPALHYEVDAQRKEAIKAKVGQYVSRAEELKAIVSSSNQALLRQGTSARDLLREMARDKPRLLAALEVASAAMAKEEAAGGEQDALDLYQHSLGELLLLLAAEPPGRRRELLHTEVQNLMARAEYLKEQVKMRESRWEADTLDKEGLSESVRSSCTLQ
Put shortly:
as §1

In a further assay the target is T4, EPHA3 (UniProt P29320).
T4 sequence (whole entry): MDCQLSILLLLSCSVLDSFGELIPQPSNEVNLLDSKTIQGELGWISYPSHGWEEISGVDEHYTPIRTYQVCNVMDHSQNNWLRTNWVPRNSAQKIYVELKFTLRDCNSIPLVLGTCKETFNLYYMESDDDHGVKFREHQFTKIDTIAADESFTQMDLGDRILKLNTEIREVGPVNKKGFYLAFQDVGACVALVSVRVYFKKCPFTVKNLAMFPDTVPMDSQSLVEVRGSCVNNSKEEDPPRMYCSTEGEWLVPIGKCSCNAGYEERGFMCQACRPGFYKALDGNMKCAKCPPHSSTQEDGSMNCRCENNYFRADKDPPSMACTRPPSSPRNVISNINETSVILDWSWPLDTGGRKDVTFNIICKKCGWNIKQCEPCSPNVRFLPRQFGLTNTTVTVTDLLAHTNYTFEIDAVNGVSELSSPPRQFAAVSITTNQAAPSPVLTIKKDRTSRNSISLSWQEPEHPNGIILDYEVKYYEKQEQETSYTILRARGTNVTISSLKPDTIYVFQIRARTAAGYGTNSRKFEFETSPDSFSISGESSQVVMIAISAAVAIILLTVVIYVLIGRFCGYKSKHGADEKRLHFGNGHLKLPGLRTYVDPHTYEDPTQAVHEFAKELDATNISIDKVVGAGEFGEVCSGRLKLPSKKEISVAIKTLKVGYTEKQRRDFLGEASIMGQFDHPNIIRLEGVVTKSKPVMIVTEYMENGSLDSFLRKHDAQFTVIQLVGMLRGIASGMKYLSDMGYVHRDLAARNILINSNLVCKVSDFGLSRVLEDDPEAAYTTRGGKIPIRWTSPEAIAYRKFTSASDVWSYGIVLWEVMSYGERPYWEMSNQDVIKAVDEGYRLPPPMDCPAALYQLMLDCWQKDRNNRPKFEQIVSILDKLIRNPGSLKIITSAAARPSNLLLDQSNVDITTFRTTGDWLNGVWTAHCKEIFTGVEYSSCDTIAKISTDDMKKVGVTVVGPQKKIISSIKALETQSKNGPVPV
Summed up: as §1

The next assay addresses UniProt P07947. Put shortly: as §1

Sequence of UniProt P07947 (P07947 whole entry, looked up): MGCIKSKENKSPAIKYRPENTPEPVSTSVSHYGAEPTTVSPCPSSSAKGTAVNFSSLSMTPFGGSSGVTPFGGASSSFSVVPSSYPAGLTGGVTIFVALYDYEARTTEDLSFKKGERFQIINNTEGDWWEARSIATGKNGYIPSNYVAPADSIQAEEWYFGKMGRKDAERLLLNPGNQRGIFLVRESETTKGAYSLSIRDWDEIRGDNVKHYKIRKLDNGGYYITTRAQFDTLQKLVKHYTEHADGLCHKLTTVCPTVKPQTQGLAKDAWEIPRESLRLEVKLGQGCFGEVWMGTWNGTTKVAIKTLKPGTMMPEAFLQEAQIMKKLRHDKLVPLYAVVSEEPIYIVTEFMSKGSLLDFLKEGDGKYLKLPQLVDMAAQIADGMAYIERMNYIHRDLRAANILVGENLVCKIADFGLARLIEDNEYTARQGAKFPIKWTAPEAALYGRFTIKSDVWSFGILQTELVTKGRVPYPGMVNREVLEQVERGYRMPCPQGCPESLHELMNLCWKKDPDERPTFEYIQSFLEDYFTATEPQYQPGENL
Sequence of UniProt O75460 (O75460 whole entry, looked up): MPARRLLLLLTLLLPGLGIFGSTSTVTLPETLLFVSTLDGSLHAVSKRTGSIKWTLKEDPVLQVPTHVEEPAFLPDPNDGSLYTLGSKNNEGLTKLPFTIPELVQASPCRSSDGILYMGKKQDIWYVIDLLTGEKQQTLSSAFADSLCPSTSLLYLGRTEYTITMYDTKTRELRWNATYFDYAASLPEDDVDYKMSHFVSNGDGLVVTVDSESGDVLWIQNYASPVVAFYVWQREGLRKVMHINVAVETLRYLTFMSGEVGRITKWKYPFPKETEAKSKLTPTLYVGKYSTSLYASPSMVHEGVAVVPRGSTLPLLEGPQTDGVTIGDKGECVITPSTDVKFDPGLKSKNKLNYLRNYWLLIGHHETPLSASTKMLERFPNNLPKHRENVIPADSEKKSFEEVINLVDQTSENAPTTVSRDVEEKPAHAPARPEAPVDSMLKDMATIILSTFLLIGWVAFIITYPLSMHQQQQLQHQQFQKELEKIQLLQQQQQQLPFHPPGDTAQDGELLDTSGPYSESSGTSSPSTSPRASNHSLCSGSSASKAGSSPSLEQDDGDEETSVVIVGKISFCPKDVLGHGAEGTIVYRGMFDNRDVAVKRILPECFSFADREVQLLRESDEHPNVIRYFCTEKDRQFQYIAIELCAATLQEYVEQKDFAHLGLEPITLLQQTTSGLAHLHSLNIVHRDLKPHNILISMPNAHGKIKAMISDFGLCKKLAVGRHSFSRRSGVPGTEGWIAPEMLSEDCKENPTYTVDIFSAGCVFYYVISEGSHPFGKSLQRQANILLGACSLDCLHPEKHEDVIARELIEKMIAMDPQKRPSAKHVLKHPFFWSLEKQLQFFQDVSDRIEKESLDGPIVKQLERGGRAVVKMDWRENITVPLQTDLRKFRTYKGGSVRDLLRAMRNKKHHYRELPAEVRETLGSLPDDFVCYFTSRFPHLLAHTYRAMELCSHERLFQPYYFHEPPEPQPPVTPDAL
Sequence of UniProt Q15418 (Q15418 whole entry): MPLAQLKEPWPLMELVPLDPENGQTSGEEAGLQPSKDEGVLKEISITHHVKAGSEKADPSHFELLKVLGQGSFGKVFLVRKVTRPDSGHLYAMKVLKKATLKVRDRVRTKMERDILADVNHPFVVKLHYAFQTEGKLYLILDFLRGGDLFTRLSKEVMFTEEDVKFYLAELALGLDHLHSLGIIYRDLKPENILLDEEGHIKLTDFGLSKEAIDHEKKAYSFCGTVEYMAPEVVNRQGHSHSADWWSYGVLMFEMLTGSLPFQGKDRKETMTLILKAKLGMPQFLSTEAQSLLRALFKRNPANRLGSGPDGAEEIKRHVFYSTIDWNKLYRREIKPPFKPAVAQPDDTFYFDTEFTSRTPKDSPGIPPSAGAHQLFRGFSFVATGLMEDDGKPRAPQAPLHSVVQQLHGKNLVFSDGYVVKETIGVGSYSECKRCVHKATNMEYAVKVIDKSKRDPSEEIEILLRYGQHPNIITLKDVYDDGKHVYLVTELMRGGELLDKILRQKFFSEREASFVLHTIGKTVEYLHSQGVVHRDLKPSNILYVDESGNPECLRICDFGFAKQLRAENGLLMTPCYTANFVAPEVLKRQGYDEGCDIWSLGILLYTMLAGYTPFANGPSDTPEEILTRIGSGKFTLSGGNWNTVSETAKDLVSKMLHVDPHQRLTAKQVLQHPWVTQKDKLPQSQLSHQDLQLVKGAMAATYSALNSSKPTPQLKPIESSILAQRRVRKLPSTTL

For `Cc1cc(Nc2cc(C(=O)NCCNC(=O)OC3CC/C=C/CCC3)nc(N3CCN(Cc4ccc(S(=O)(=O)F)cc4)CC3)n2)n[nH]1` (stereo unspecified), the pIC50 on TNK1 is 4.8; on UniProt P45985 (cell material: Lysate mix) it was below 4.52; at UniProt Q15418 (cell material: Lysate mix) it was below 4.52; at UniProt O75460 (cell material: Lysate mix) it was below 4.52; on ULK3 (cell material: Lysate mix), below 4.52; at EPHA3 (cell material: Lysate mix), below 4.52. At UniProt P07947 (cell material: Lysate mix), this compound had a negative logarithm of the IC50 (pIC50) of 5.25.

Regarding `C#CCNC(=O)c1cc(Nc2cc(C3CC3)[nH]n2)nc(N2CCN(Cc3ccc(S(=O)(=O)F)cc3)CC2)n1`, the pIC50 at TNK1 was 7.34; on UniProt P45985 (cell material: Jurkat cells) it was 5.86; at UniProt P45985 (cell material: Jurkat lysate) it was below 4.52; on UniProt P45985 (cell material: Lysate mix), 4.82; on UniProt Q15418 (cell material: Jurkat cells), 5.98; at UniProt Q15418 (cell material: Jurkat lysate), below 4.52. For the same compound, the negative-log IC50 (pIC50) is 5.49 at UniProt Q15418 (cell material: Lysate mix); below 4.52 on UniProt O75460 (cell material: Jurkat cells); below 4.52 on UniProt O75460 (cell material: Jurkat lysate); below 4.52 on UniProt O75460 (cell material: Lysate mix); 6.44 at ULK3 (cell material: Jurkat cells); 5.88 at ULK3 (cell material: Jurkat lysate). Besides, the pIC50 is 6.39 at ULK3 (cell material: Lysate mix); below 4.52 at EPHA3 (cell material: Jurkat lysate); below 4.52 at EPHA3 (cell material: Lysate mix); 6.61 on UniProt P07947 (cell material: Jurkat cells); 5.84 at UniProt P07947 (cell material: Jurkat lysate); 6.62 on UniProt P07947 (cell material: Lysate mix).

`CCNC(=O)c1cc(Nc2cc(C3CC3)[nH]n2)nc(N2CCN(Cc3ccc(S(=O)(=O)F)cc3)CC2)n1`: the pIC50 on TNK1 was 7.21; on UniProt P45985 (cell material: Lysate mix), 4.88; at UniProt Q15418 (cell material: Lysate mix) it was 5.37; at UniProt O75460 (cell material: Lysate mix), below 4.52; on ULK3 (cell material: Lysate mix), 6.27; at EPHA3 (cell material: Lysate mix), below 4.52. The same compound came in with a pIC50 at UniProt P07947 (cell material: Lysate mix) of 6.44.

Regarding `C#CCNC(=O)c1cc(Nc2cc(C)[nH]n2)nc(N2CCN(Cc3ccc(S(=O)(=O)F)cc3)CC2)n1`, the pIC50 at TNK1 is 6.23; on UniProt P45985 (cell material: Lysate mix) it was below 4.52; at UniProt Q15418 (cell material: Lysate mix), 5.27; at UniProt O75460 (cell material: Lysate mix) it was below 4.52; at ULK3 (cell material: Lysate mix) it was 5.49; on EPHA3 (cell material: Lysate mix), below 4.52. On UniProt P07947 (cell material: Lysate mix), this compound registered a pIC50 of 6.3.

As to `O=C(NCCNC(=O)c1cc(Nc2cc(C3CC3)[nH]n2)nc(N2CCN(Cc3ccc(S(=O)(=O)F)cc3)CC2)n1)OC1CC/C=C/CCC1` (stereo unspecified), the negative-log IC50 (pIC50) is 5.44 at TNK1; below 4.52 on UniProt P45985 (cell material: Jurkat lysate); below 4.52 on UniProt P45985 (cell material: Lysate mix); 5.78 on UniProt Q15418 (cell material: Jurkat cells); below 4.52 on UniProt Q15418 (cell material: Jurkat lysate); below 4.52 on UniProt O75460 (cell material: Jurkat lysate). Moreover, the negative-log IC50 (pIC50) is below 4.52 at UniProt O75460 (cell material: Lysate mix); 5.86 on ULK3 (cell material: Jurkat cells); below 4.52 at ULK3 (cell material: Jurkat lysate); below 4.52 at EPHA3 (cell material: Jurkat cells); below 4.52 at EPHA3 (cell material: Jurkat lysate); below 4.52 at EPHA3 (cell material: Lysate mix). Besides, the negative-log IC50 (pIC50) stood at 6.18 on UniProt P07947 (cell material: Jurkat cells), 4.62 on UniProt P07947 (cell material: Jurkat lysate) and 5.24 on UniProt P07947 (cell material: Lysate mix).

`CCNC(=O)c1cc(Nc2cc(C)[nH]n2)nc(N2CCN(Cc3ccc(S(=O)(=O)F)cc3)CC2)n1`: the pIC50 on TNK1 is 7.07; on UniProt P45985 (cell material: Lysate mix), below 4.52; on UniProt Q15418 (cell material: Lysate mix), 5.04; at UniProt O75460 (cell material: Lysate mix), below 4.52; on ULK3 (cell material: Lysate mix), 5.63; at EPHA3 (cell material: Lysate mix), below 4.52. At UniProt P07947 (cell material: Lysate mix), this compound came in with a negative logarithm of the IC50 (pIC50) of 7.16.
